In article PMC9273935, “Cooperative Binding of Substrate and Ions Drives Forward Cycling of the Human Creatine Transporter-1” (Frontiers in Physiology, 2022) one finds IC50 and EC50 data, which are given here for four molecules.

In assay [1] the target is T1, human creatine transporter-1 (CRT-1, SLC6A8), C-terminally YFP-tagged (Homo sapiens, UniProt P48029).
T1 construct: full-length cDNA in pEYFP-N1, C-terminal YFP tag, transiently expressed in HEK293 cells; oligomeric state not known
T1 sequence (P48029 1-635): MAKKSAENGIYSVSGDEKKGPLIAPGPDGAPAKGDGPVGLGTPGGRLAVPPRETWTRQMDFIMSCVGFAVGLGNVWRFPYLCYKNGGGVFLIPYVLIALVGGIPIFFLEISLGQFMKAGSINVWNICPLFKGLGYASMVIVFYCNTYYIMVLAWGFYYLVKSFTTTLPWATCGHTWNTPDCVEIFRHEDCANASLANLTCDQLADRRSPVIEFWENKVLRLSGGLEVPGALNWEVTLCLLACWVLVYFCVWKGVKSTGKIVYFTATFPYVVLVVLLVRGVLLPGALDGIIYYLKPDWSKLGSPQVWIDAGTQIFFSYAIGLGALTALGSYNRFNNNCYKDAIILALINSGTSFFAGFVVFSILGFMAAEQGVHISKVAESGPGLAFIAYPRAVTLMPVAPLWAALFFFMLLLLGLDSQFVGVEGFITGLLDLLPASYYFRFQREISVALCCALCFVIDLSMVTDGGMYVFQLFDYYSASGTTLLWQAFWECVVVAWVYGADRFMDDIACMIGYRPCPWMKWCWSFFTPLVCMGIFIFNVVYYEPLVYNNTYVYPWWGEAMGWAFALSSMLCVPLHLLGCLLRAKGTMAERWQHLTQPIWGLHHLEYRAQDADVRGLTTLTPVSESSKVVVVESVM
Kind of assay: inhibition of [3H]creatine uptake in transfected HEK293 cells. The class given is cell-based.

Assay [2] deals with T1, human creatine transporter-1 (CRT-1, SLC6A8), C-terminally YFP-tagged. Kind of assay: whole-cell patch clamp, substrate-induced transport current in transfected HEK293 cells. The assay is classed as cell-based.

The term IC50 denotes the concentration that gives 50% inhibition. As usually defined, the EC50 is the concentration at which the effect is half-maximal. A high value points to lower potency in that assay. Take `NC1=NCC(C(=O)O)CN1` (centres unmarked) [ATPCA, 2-amino-1,4,5,6-tetrahydropyrimidine-5-carboxylic acid]: inhibition in assay [1] was half-maximal at 105 ± 6.7 µM (IC50). In assay [2], this molecule had an EC50 of 103 ± 4 µM.

Molecule `CN(CC(=O)O)C(=N)N` [creatine] returned an IC50 in assay [1] of 48.4 ± 7 µM. In addition, the EC50 in assay [2] stood at 34.8 ± 1.9 µM.

In the case of `NC1=NCCN1CC(=O)O` [cyclocreatine], the 50% inhibitory concentration (IC50) in assay [1] was found to be 167 ± 9.9 µM. The same molecule displayed an EC50 in assay [2] of 162 ± 8.49 µM.

Molecule `N=C(N)NCCC(=O)O` [β-guanidinopropionic acid] had an IC50 in assay [1] of 18.8 ± 1.1 µM. Also, the EC50 in assay [2] is 13.2 ± 0.73 µM.
